One assay concerns the target CDK4/cyclin D1 (Homo sapiens, UniProt P11802). Kind of assay: CDK4/cyclin D1 Flashplate test in 96-well format. Type of assay: biochemical. An outline of the steps:
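CDK4-HA/cyclin D1-(His)6 complex from coinfected Sf9 cells, 25 nM final, phosphorylating 1.8 μM biotinylated pRb peptide in HEPES pH 7.5 with MgCl2, DTT and [γ-33P]ATP at 30 °C. 33P incorporation captured on streptavidin Flashplates and read by scintillation counting; IC50 from seven-point inhibitor dilutions.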

Another assay concerns HeLa. Kind of assay: HeLa proliferation. Type of assay: cell-based. The following applies: Homo sapiens, read-out: HeLa proliferation EC50 (nM) DG.
In the next assay the target is T1, Aurora 2 (Homo sapiens, UniProt O14965).
T1 construct: A complete recombinant Aurora 2 enzyme, the N-terminal end of which was labeled with histidine; His tag (N); made in house; host or cells: E. coli
T1 sequence (O14965 1-403): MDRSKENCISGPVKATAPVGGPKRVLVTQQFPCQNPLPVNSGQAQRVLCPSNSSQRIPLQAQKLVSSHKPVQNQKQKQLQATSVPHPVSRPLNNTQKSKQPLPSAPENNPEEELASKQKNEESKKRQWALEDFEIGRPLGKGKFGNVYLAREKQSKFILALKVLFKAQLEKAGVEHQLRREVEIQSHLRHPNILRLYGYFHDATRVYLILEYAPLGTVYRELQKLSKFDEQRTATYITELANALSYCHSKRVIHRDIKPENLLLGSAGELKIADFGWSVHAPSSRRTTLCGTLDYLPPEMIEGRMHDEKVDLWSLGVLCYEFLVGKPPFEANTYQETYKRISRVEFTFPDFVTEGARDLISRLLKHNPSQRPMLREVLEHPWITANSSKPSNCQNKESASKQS
Kind of assay: Aurora 2 kinase radioactivity scintillation test. Type of assay: biochemical. The procedure: The inhibitory effect of the compounds toward the kinase Aurora 2 is determined via a radioactivity scintillation test.
A complete recombinant Aurora 2 enzyme, the N-terminal end of which was labeled with histidine, was expressed in E. coli and purified to a quality close to homogeneity.
The C-terminal fragment (Q1687-H2101) of an NuMA (nuclear protein which is associated with the Mitotic Apparatus) expressed in E. coli, and the N-terminal end of which was labeled with histidine, was purified by chromatography with nickel chelate and used as substrate in the Aurora 2 kinase test.
The kinase activity of Aurora 2 is measured by scintillation on a microplate saturated with nickel chelate (New England Nuclear, SMP107 model). Each well contains 100 μl of the following solution: 0.02 μM of Aurora 2; 0.5 μM of NuMA substrate; 1 μM of ATP supplemented with 0.5 μCi of ATP-[^33P]. The solutions are incubated for 45 minutes at 37° C. The test buffer is then removed and the wells are rinsed twice with 300 μl of kinase buffer. The radioactivity is measured in each well using a Packard Model Top Count NXT machine.
The background noise is measured in duplicate in wells containing the radioactive ATP alone containing buffered kinase treated in the same manner as for the other samples.
The activity of the control is determined by measuring in duplicate the radioactivity in the complete test mixture (ATP, Aurora 2 and NuMA substrate), in the absence of test compound.
The inhibition of the activity of Aurora 2 with a compound of the invention is expressed as a percentage of inhibition of the control activity in the absence of test compound. Staurosporin is added to each plate as inhibition control.

In patent publication US7632952B2, “Benzothiazoles and the use thereof as medicaments” (Aventis Pharma S.A., priority 2004, dated 2009) one finds IC50 and EC50 data, which are given here for 17 molecules.

Where a name gives a salt, the structure may show the parent alone.

Sequence of CDK4/cyclin D1 (P11802 whole entry): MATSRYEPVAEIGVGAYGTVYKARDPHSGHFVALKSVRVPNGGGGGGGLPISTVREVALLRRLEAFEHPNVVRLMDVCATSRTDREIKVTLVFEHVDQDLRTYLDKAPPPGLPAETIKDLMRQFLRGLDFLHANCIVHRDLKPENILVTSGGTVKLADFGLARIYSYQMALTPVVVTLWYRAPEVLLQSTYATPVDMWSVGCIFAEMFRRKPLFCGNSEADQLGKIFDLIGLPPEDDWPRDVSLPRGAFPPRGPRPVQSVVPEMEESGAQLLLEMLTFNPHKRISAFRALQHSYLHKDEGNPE
Sequence of CDK4/cyclin D1 (P24385 whole entry partner): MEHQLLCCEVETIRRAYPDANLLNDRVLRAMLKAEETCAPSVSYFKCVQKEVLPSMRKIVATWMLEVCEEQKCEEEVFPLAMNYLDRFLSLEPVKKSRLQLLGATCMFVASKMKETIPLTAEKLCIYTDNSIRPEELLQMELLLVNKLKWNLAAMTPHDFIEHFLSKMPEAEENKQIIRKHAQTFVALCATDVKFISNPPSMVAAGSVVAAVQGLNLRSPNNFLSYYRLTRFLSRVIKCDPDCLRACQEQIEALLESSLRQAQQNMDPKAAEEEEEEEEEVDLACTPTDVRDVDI

What is called IC50 is the concentration that gives 50% inhibition. Take `CC(=O)Nc1nc2ccc(OS(=O)(=O)c3ccc(NCCN(C(C)C)C(C)C)cc3)cc2s1` [Example 43, 4-(2-Diisopropylaminoethylamino)benzenesulfonic acid 2-acetylaminobenzothiazol-6-yl ester]: the concentration for half-maximal inhibition (IC50) came out at 119 nM against CDK4/cyclin D1 and 2010 nM on Aurora 2. Moreover, the EC50 in the assay with HeLa was 36 nM.
For `CNc1ccc(S(=O)(=O)Oc2ccc3nc(NC(=O)C4CC4)sc3c2)cc1` [Example 10, 4-methylaminobenzenesulfonic 2-(cyclopropane-carbonylamino)benzothiazol-6-yl ester] the same measures were 944 nM, 34 nM and 807 nM.
The matching figures for `CC(C)N(CCNc1ccc(S(=O)(=O)Oc2ccc3nc(NC(=O)C4(N)CCCC4)sc3c2)cc1)C(C)C` [Example 41, 4-(2-diisopropylaminoethylamino)benzenesulfonic acid 2-[(1-aminocyclopentanecarbonyl)amino]benzothiazol-6-yl ester]: over 10000 nM, 325 nM and 8390 nM.
The matching figures for `COCC(=O)Nc1nc2ccc(OS(=O)(=O)c3ccc(NCCN(C(C)C)C(C)C)cc3)cc2s1` [Example 44, 4-(2-Diisopropylaminoethylamino)benzenesulfonic acid 2-(2-methoxyacetylamino)benzothiazol-6-yl ester]: 313 nM, 3080 nM and 76 nM.
Regarding `CC(C)(CNc1ccc(S(=O)(=O)Oc2ccc3nc(NC(=O)C4CC4)sc3c2)cc1)OP(=O)(O)O` [Example 89, 4-(2-methyl-2-phosphonooxypropylamino)benzene-sulfonic acid 2-(cyclopropanecarbonylamino)benzothiazol-6-yl ester], the IC50 against CDK4/cyclin D1 came out at 3320 nM; at Aurora 2 it was 258 nM. Moreover, the EC50 in the assay with HeLa was found to be 2510 nM.
As for `CC(C)N(CCNc1ccc(S(=O)(=O)Oc2ccc3nc(NC(=O)C4CCC4)sc3c2)cc1)C(C)C` [Example 60, 4-(2-diisopropylaminoethylamino)benzenesulfonic acid 2-(cyclobutanecarbonylamino)benzothiazol-6-yl ester hydrochloride], the half-inhibitory concentration (IC50) was found to be 265 nM against CDK4/cyclin D1 and 2800 nM at Aurora 2. Also, the EC50 in the assay with HeLa was 199 nM.
The matching figures for `CC(C)N(CCNc1ccc(S(=O)(=O)Oc2ccc3nc(NC(=O)C4CCCC4)sc3c2)cc1)C(C)C` [Example 45, 4-(2-Diisopropylaminoethylamino)benzenesulfonic acid 2-(cyclo-pentanecarbonylamino)benzothiazol-6-yl ester]: 341 nM, 2890 nM and 289 nM.
For `CCC(=O)Nc1nc2ccc(OS(=O)(=O)c3ccc(NCCN(C(C)C)C(C)C)cc3)cc2s1` [Example 57, 4-(2-diisopropylaminoethylamino)benzenesulfonic acid 2-propionylaminobenzothiazol-6-yl ester hydrochloride] the same measures were 125 nM, 3180 nM and 79 nM.
For `O=C(Nc1nc2ccc(OS(=O)(=O)c3cccs3)cc2s1)C1CC1` [Example 33h, Thiophene-2-sulfonic acid 2-(cyclopro-panecarbonylamino)benzothiazol-6-yl ester] the same measures were 358 nM, 68 nM and 4430 nM.
For `CC(C)(O)CNc1ccc(S(=O)(=O)Oc2ccc3nc(NC(=O)C4CC4)sc3c2)cc1` [Example 11, 4-(2-hydroxy-2-methylpropylamino)benzene-sulfonic 2-(cyclopropanecarbonylamino)benzothiazol-6-yl ester], the half-inhibitory concentration (IC50) came to 924 nM on CDK4/cyclin D1 and 105 nM at Aurora 2. Besides, in the assay on HeLa, the EC50 stood at 80 nM.
For `CC(C)N(CCNc1ccc(S(=O)(=O)Oc2ccc3nc(NC(=O)C4CC4)sc3c2)cc1)C(C)C` [Example 12, 4-(2-diisopropylaminoethylamino)benzenesulfonic 2-(cyclopropanecarbonylamino)benzothiazol-6-yl ester] the same measures were 205 nM, 172 nM and 16 nM.
As for `O=C(Nc1nc2ccc(OS(=O)(=O)c3ccc(-c4ccccn4)s3)cc2s1)C1CC1` [Example 85, 5-pyridin-2-ylthiophene-2-sulfonic acid 2-(cyclopropanecarbonylamino)benzothiazol-6-yl ester], the 50% inhibitory concentration (IC50) on CDK4/cyclin D1 was over 10000 nM; on Aurora 2, 6940 nM. Moreover, in the assay on HeLa, the EC50 was over 12500 nM.
For `CC(C)NCCNc1ccc(S(=O)(=O)Oc2ccc3nc(NC(=O)C4CC4)sc3c2)cc1` [Example 53, 4-(2-isopropylaminoethylamino)benzenesulfonic 2-(cyclopropanecarbonylamino)benzothiazol-6-yl ester hydrochloride] the same measures were 205 nM, 172 nM and 16 nM.
For `CC(C)(O)CNc1ccc(S(=O)(=O)Oc2ccc3nc(NC(=O)CCc4cccnc4)sc3c2)cc1` [Example 63, 4-(2-hydroxy-2-methylpropylamino)benzene-sulfonic acid 2-(3-pyrid-3-ylpropionylamino)benzothiazol-6-yl ester hydro-chloride] the same measures were 1390 nM, 1050 nM and 8370 nM.
The matching figures for `CC(C)C(=O)Nc1nc2ccc(OS(=O)(=O)c3ccc(NCCN(C(C)C)C(C)C)cc3)cc2s1` [Example 55, 4-(2-diisopropylaminoethylamino)benzenesulfonic acid 2-isobutyrylaminobenzothiazol-6-yl ester hydrochloride]: 221 nM, 5830 nM and 43 nM.
Take `O=C(Nc1nc2ccc(OS(=O)(=O)c3ccc(NCCCn4ccnc4)cc3)cc2s1)C1CC1` [Example 9, 4-(3-imidazol-1-ylpropylamino)benzenesulfonic 2-(cyclopropanecarbonylamino)benzothiazol-6-yl ester]: the results for the concentration for half-maximal inhibition (IC50) against CDK4/cyclin D1 and at Aurora 2 were 931 nM and 65 nM, respectively. For the same molecule, the EC50 with HeLa was found to be 611 nM.
For `CC(=O)Nc1nc2ccc(OS(=O)(=O)c3ccc(NCCNC(C)C)cc3)cc2s1` [Example 65, 4-(2-isopropylaminoethylamino)benzenesulfonic acid 2-acetylaminobenzothiazol-6-yl ester] the same measures were 170 nM, 826 nM and 122 nM.
